Measurements taken from patent publication US20110230477A1, “COMPOUNDS, PHARMACEUTICAL COMPOSITION AND METHODS FOR USE IN TREATING METABOLIC DISORDERS” (Euroscreen S.A., priority 2008, published 2011).

Biological target: T1, human GPR43 receptor (hGPR43) (Homo sapiens, UniProt O15552)
T1 construct: expressed in transfected cells
T1 sequence (O15552 1-330): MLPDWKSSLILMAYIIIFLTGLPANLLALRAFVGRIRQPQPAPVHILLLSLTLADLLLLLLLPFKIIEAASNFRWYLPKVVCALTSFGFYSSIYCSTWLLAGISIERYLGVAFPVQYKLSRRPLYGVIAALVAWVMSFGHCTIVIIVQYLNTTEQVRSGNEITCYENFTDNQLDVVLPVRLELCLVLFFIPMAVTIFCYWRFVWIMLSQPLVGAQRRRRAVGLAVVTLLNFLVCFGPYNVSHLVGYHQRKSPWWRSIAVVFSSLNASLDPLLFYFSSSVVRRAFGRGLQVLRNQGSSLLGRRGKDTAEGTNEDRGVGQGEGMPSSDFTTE
Test: GTPγS binding assay (SPA method)
Type: biochemical
Conditions: membranes expressing hGPR43; assay performed in the presence of SCFA; read-out: EC50 (nM) in GTPγ35S assay
From the text: The following assay can be used for determination of GPR43 activation. When a GPCR is in its active state, either as a result of ligand binding or constitutive activation, the receptor couples to a G protein and stimulates the release of GDP and subsequent binding of GTP to the G protein. The alpha subunit of the G protein-receptor complex acts as a GTPase and slowly hydrolyses the GTP to GDP, at which point the receptor normally is deactivated. Activated receptors continue to exchange GDP for GTP. […] The assay uses the ability of GPCR to stimulate [^35S]GTPγS binding to membranes expressing the relevant receptors. The assay can, therefore, be used in the direct identification method to screen candidate compounds to endogenous or not endogenous GPCR.
Membrane extracts were prepared from cells expressing the human GPR43 receptor (hGPR43) as follows: the medium was aspirated and the cells were scraped from the plates in Ca^++ and Mg^++-free Phosphate-buffered saline (PBS). The cells were then centrifuged for 3 min at 1500 g and the pellets were resuspended in buffer A (15 mM Tris-HCl pH 7.5, 2 mM MgCl2, 0.3 mM EDTA, 1 mM EGTA) and homogenized in a glass homogenizer. […] Protein content was assayed by the Folin method.
The assay was performed in the presence of SCFA, and was used to determine the activity of the compounds of the invention.
The [^35S]GTPγS assay was incubated in 20 mM HEPES pH7.4, 100 mM NaCl, 10 μg/ml saponin, 30 mM of MgCl2, 10 μM of GDP, 5 μg membrane-expressing hGPR43, 250 μg of wheatgerm agglutinin beads (Amersham, ref: RPNQ001), a range concentration of compounds (from 30 μM to 1 nM) in a final volume of 100 μl for 30 min at room temperature. The SCFA propionate was used at 1 mM final concentration as positive control. The plates were then centrifuged for 10 minutes at 2000 rpm, incubated for 2 hours at room temperature and counted for 1 min in a scintillation counter (TopCount, PerkinElmer).

Row | EC50 [nM] | SMILES
1 | 1830 | O=C(O)C[C@@H](Cc1ccccc1)C(=O)Nc1ccc(-c2ccccc2Cl)c[n+]1[O-] [Compound 196, (R)-2-(2-benzyl-3-carboxypropanamido)-5-(2-chlorophenyl)pyridine 1-oxide]
2 | 92 | CN1CCOc2cc(-c3ccccc3-c3csc(N(C)C(=O)[C@@H](CC(=O)O)Cc4ccccc4)n3)cnc21 [Compound 182, (R)-3-benzyl-4-(methyl(4-(2-(4-methyl-3,4-dihydro-2H-pyrido[3,2-b][1,4]oxazin-7-yl)phenyl)thiazol-2-yl)amino)-4-oxobutanoic acid]
3 | 341 | CN(C(=O)[C@@H](CC(=O)O)Cc1ccccc1)c1nc(-c2ccccc2-c2cnc3c(c2)CCC(=O)N3C)cs1 [Compound 216, (R)-3-benzyl-4-(methyl(4-(2-(8-methyl-7-oxo-5,6,7,8-tetrahydro-1,8-naphthyridin-3-yl)phenyl)thiazol-2-yl)amino)-4-oxobutanoic acid]
4 | 2170 | C[C@H](c1ccccc1)[C@@H](CC(=O)O)C(=O)N(C)c1nc(-c2ccccc2Cl)cs1 [Compound 195, (3R,4S)-3-((4-(2-chlorophenyl)thiazol-2-yl)(methyl)carbamoyl)-4-phenylpentanoic acid]
5 | 2680 | Cc1cc(CC(CC(=O)O)C(=O)N(C)c2nc(-c3ccccc3Cl)cs2)no1 (centres unmarked) [Compound 210, 4-((4-(2-chlorophenyl)thiazol-2-yl)(methyl)amino)-3-((5-methylisoxazol-3-yl)methyl)-4-oxobutanoic acid]
6 | 1360 | O=C(O)C[C@@H](Cc1ccccc1)C(=O)N(CCOCc1ccccc1)c1nc(-c2ccccc2Cl)cs1 [Compound 201, (R)-3-benzyl-4-((2-(benzyloxy)ethyl)(4-(2-chlorophenyl)thiazol-2-yl)amino)-4-oxobutanoic acid]
7 | 628 | C[C@@H](O)CN(C(=O)[C@@H](CC(=O)O)Cc1ccccc1)c1nc(-c2ccccc2Cl)cs1 [Compound 246, (R)-3-benzyl-4-((4-(2-chlorophenyl)thiazol-2-yl)((R)-2-hydroxypropyl)amino)-4-oxobutanoic acid]
8 | 867 | O=C(O)C[C@@H](Cc1ccccc1)C(=O)N(CCCO)c1nc(-c2ccccc2Cl)cs1 [Compound 156, (R)-3-benzyl-4-((4-(2-chlorophenyl)thiazol-2-yl)(3-hydroxypropyl)amino)-4-oxobutanoic acid]
9 | 2910 | Cc1sc(NC(=O)[C@@H](CC(=O)O)Cc2ccccc2)c(C(N)=O)c1-c1ccc(Cl)cc1Cl [Compound 207, (3R)-3-benzyl-4-((3-carbamoyl-4-(2,4-dichlorophenyl)-5-methylthiophen-2-yl)amino)-4-oxobutanoic acid]
10 | 127 | COc1ccc(-c2ccc(Cl)c(-c3csc(N(C)C(=O)[C@@H](CC(=O)O)Cc4ccccc4)n3)c2)cn1 [Compound 177, (R)-3-benzyl-4-((4-(2-chloro-5-(6-methoxypyridin-3-yl)phenyl)thiazol-2-yl)(methyl)amino)-4-oxobutanoic acid]
11 | 32 | CN(C)c1ccc(-c2ccccc2-c2csc(N(C(=O)[C@@H](CC(=O)O)CC3CCCC3)C3CC3)n2)cn1 [Compound 218, (R)-3-(cyclopentylmethyl)-4-(cyclopropyl(4-(2-(6-(dimethylamino)pyridin-3-yl)phenyl)thiazol-2-yl)amino)-4-oxobutanoic acid]
12 | 37 | O=C(O)C[C@@H](Cc1ccccc1)C(=O)N(c1nc(-c2cc(C(F)(F)F)ccc2Cl)cs1)C1CC1 [Compound 191, (R)-3-benzyl-4-((4-(2-chloro-5-(trifluoromethyl)phenyl)thiazol-2-yl)(cyclopropyl)amino)-4-oxobutanoic acid]

Further lines, the compound ahead of its results:

Row | SMILES | EC50 [nM]
13 | O=C(O)C[C@@H](Cc1ccccc1)C(=O)Nc1nc(-c2ccc(Cl)c(Cl)c2)cs1 [Compound 5, (R)-3-benzyl-4-(4-(3,4-dichlorophenyl)thiazol-2-ylamino)-4-oxobutanoic acid] | 292
14 | CN(C(=O)[C@@H](CC(=O)O)Cc1ccccc1)c1nc(-c2ccccc2-c2ccc(N3CCOCC3)nc2)cs1 [Compound 133, (R)-3-benzyl-4-(methyl(4-(2-(6-morpholinopyridin-3-yl)phenyl)thiazol-2-yl)amino)-4-oxobutanoic acid] | 241
15 | CC(C)[C@H](CC(=O)O)C(=O)N(C)c1nc(-c2ccccc2Cl)cs1 [Compound 94, (S)-3-((4-(2-chlorophenyl)thiazol-2-yl)(methyl)carbamoyl)-4-methylpentanoic acid] | 200
16 | O=C(O)C[C@@H](Cc1ccccc1)C(=O)Nc1nc(-c2ccccc2Cl)c(F)s1 [Compound 20, (R)-3-benzyl-4-(4-(2-chlorophenyl)-5-fluorothiazol-2-ylamino)-4-oxobutanoic acid] | 96
17 | NC(=O)CN(C(=O)[C@@H](CC(=O)O)Cc1ccccc1)c1nc(-c2ccccc2Cl)cs1 [Compound 121, (R)-4-((2-amino-2-oxoethyl)(4-(2-chlorophenyl)thiazol-2-yl)amino)-3-benzyl-4-oxobutanoic acid] | 766
18 | CN(C(=O)[C@@H](CC(=O)O)Cc1ccccc1)c1nc(-c2ccccc2-c2ccsc2)cs1 [Compound 107, (R)-3-benzyl-4-(methyl(4-(2-(thiophen-3-yl)phenyl)thiazol-2-yl)amino)-4-oxobutanoic acid] | 361
19 | CN(C(=O)[C@@H](CC(=O)O)Cc1ccccc1)c1nc(-c2ccccc2-c2ccc(F)nc2)cs1 [Compound 119, (R)-3-benzyl-4-((4-(2-(6-fluoropyridin-3-yl)phenyl)thiazol-2-yl)(methyl)amino)-4-oxobutanoic acid] | 421
20 | CN(C(=O)C(CC(=O)O)CC1CC1)c1nc(-c2ccccc2Cl)cs1 (centres unmarked) [Compound 113, 4-((4-(2-chlorophenyl)thiazol-2-yl)(methyl)amino)-3-(cyclopropylmethyl)-4-oxobutanoic acid] | 226
21 | C[C@@H](c1ccccc1)[C@H](CC(=O)O)C(=O)N(C)c1nc(-c2ccccc2Cl)cs1 [Compound 106, (3S ,4R)-3-((4-(2-chlorophenyl)thiazol-2-yl)(methyl)carbamoyl)-4-phenylpentanoic acid] | 216
22 | O=C(O)C[C@@H](Cc1ccccc1)C(=O)Nc1nc(-c2ccccc2Cl)cs1 [Compound 2, (R)-3-benzyl-4-(4-(2-chlorophenyl)thiazol-2-ylamino)-4-oxobutanoic acid] | 273
23 | Cc1cc(-c2csc(NC(=O)[C@@H](CC(=O)O)Cc3ccccc3)n2)c(C)s1 [Compound 102, (R)-3-benzyl-4-(4-(2,5-dimethylthiophen-3-yl)thiazol-2-ylamino)-4-oxobutanoic acid] | 442
24 | CN(C(=O)[C@@H](CC(=O)O)CC1CCCCC1)c1nc(-c2ccccc2Cl)cs1 [Compound 89, (R)-4-((4-(2-chlorophenyl)thiazol-2-yl)(methyl)amino)-3-(cyclohexylmethyl)-4-oxobutanoic acid] | 37
25 | C=CCN(C(=O)[C@@H](CC(=O)O)Cc1ccccc1)c1nc(-c2ccccc2Cl)cs1 [Compound 22, (R)-4-(allyl(4-(2-chlorophenyl)thiazol-2-yl)amino)-3-benzyl-4-oxobutanoic acid] | 365
26 | COC(=O)CCN(C(=O)[C@@H](CC(=O)O)Cc1ccccc1)c1nc(-c2ccccc2Cl)cs1 [Compound 126, (R)-3-benzyl-4-((4-(2-chlorophenyl)thiazol-2-yl)(3-methoxy-3-oxopropyl)amino)-4-oxobutanoic acid] | 183
27 | CN(C(=O)C(CC(=O)O)Cc1cscn1)c1nc(-c2ccccc2Cl)cs1 (centres unmarked) [Compound 114, 4-((4-(2-chlorophenyl)thiazol-2-yl)(methyl)amino)-4-oxo-3-(thiazol-4-ylmethyl)butanoic acid] | 539
28 | COC(=O)CN(C(=O)[C@@H](CC(=O)O)Cc1ccccc1)c1nc(-c2ccccc2Cl)cs1 [Compound 23, (R)-3-benzyl-4-((4-(2-chlorophenyl)thiazol-2-yl)(2-methoxy-2-oxoethyl)amino)-4-oxobutanoic acid] | 327
29 | O=C(O)C[C@@H](CC1CCCCC1)C(=O)Nc1nc(-c2ccccc2Cl)cs1 [Compound 18, (R)-4-(4-(2-chlorophenyl)thiazol-2-ylamino)-3-(cyclohexylmethyl)-4-oxobutanoic acid] | 104
